Measured values: US11453669B2, “Polycyclic pyridone derivative” (Shionogi & Co., Ltd., priority 2018, dated 2022)

What was measured:
HIV = assay: Anti-HIV activity (MT-4 cells, MTT); type: cell-based; conditions: Human immunodeficiency virus 1, MT4, 96 h, read-out: EC50_nM (50% HIV inhibitory concentration)
Method: Serial dilutions of a test sample were prepared in a 96-well microplate (50 μL/well). 2.5×10^5 cells/mL of an MT-4 cell suspension was dispensed at 100 μL/well to the plate containing the test sample. Then, an HIV virus solution was dispensed at 50 μL/well. The plate was mixed with a plate mixer and cultured for 4 days in a CO2 incubator. An MTT (3-(4,5-dimethylthiazol-2-yl)-2,5-diphenyltetrazolium bromide) solution was dispensed at 30 μL/well. The plate was reacted for 1 hour in a CO2 incubator. 150 μL of the supernatant was removed from each well so as not to take up the cells. 150 μL of a cell lysis solution was added to each well and well mixed with a plate mixer until the cells were completely lysed. The absorbance of the mixed plate was measured at two wavelengths of 560 nm and 690 nm using a microplate reader.

[1] = molecular target: T1, Voltage gated sodium channel (Nav1.5 channel) encoded by SCN5A gene (Homo sapiens, UniProt Q14524); assay: Nav test (QPatch whole cell patch clamp); type: cell-based; conditions: HEK cells expressing Nav1.5, applied 5 minutes or more, room temperature
T1 construct: expressed in transfected cells; host or cells: HEK cells
T1 sequence (Q14524 whole entry): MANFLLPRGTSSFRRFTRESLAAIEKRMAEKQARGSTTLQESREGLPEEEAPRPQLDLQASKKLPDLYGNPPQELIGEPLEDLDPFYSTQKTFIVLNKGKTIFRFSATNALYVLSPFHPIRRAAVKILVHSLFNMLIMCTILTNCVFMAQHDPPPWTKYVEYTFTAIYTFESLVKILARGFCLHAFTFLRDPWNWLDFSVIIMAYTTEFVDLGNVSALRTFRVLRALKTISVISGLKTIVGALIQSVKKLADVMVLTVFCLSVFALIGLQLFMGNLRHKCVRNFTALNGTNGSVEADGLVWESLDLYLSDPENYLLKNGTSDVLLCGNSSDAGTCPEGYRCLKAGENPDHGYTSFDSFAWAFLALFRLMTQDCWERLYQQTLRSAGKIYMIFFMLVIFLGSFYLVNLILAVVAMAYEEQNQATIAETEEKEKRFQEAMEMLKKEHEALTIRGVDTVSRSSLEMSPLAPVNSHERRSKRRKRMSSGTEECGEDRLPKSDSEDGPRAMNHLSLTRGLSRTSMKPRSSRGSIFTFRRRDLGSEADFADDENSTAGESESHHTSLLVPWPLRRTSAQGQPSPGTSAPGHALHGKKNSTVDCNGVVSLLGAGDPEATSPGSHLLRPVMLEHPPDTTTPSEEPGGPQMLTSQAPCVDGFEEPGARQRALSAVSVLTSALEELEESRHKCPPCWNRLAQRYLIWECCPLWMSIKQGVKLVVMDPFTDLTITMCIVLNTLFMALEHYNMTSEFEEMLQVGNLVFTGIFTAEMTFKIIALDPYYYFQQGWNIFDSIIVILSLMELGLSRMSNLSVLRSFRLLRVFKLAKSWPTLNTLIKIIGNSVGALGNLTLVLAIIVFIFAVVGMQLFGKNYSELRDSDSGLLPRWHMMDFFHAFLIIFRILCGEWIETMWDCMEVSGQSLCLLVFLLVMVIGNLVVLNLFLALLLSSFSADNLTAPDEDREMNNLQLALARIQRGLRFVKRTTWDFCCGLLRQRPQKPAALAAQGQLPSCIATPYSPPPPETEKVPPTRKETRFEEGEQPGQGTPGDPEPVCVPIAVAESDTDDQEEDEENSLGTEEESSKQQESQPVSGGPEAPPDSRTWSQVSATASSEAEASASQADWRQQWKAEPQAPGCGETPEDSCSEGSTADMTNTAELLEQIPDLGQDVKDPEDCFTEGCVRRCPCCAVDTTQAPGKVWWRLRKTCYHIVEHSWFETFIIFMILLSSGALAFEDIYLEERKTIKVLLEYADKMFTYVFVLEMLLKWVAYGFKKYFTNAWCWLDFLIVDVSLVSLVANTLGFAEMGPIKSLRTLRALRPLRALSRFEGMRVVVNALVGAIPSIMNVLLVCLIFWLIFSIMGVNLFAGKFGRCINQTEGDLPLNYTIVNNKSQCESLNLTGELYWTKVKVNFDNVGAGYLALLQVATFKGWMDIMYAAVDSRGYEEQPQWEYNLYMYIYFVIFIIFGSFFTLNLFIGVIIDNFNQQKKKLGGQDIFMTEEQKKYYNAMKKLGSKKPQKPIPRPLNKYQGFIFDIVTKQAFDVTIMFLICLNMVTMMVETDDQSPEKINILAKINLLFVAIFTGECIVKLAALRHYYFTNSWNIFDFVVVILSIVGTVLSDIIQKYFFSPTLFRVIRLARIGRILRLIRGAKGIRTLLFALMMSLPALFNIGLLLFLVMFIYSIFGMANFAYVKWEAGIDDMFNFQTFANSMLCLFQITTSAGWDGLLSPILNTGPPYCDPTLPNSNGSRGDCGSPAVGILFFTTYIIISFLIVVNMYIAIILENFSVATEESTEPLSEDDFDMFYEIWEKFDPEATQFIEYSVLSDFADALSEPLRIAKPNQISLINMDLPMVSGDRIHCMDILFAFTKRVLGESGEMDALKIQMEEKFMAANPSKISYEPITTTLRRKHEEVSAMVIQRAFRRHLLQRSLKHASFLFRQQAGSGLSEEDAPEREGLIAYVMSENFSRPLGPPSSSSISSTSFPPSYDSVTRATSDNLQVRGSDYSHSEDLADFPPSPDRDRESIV
Method: A cell was retained at a membrane potential of −100 mV by whole cell patch clamp method using a fully automated patch clamp system (QPatch; Sophion Bioscience A/S), and INa induced by depolarization pulse stimulation at −10 mV for 20 ms was recorded. […] The extracellular solution in which the medium and the compound of the present invention had been dissolved at each objective concentration was applied to the cell for 5 minutes or more under conditions of room temperature.

[2] = system: HIV mutant strain 1 (E138K/G140S/Q148H/N155H); type: cell-based; conditions: FC=EC50 of the mutant strain/EC50 of the wild strain, HeLa-CD4 cells
Method: (§1) Serial dilutions of a test sample were prepared in a 96-well microplate (50 μL/well). 2.5×10^5 cells/mL of a HeLa-CD4 cell suspension was dispensed at 100 μL/well to the plate containing the test sample. Then, an HIV virus solution (wild strain and mutant strain) was dispensed at 50 μL/well. The plate was mixed with a plate mixer and cultured for 3 days in a CO2 incubator. The culture supernatant in each well was removed by suction. A cell lysis buffer in a reporter assay kit was dispensed at 100 μL/well, and the plate was frozen in a freezer (−80° C.). The plate frozen in a freezer was thawed at room temperature, then mixed with a plate mixer, and centrifuged at 1,200 rpm for 5 minutes. The supernatant of each well was dispensed at 20 μL/well to a 96-well microplate (BLACK). A chemiluminescent in the reporter assay kit reagent was dispensed at 100 μL/well and reacted at room temperature for approximately 1 hour. Then, luminescence intensity was measured using MicroBeta TRILUX.

[3] = system: HIV mutant strain 2 (E92Q/E138T/G140S/Q148H); type: cell-based; conditions: FC=EC50 of the mutant strain/EC50 of the wild strain, HeLa-CD4 cells
Method: as §1

[4] = type: in vitro ADME; conditions: human, 30 min, 0.5 μmol/L, pH 7.4
Method: Using commercially available pooled human liver microsomes, a compound of the present invention was reacted for a constant time, and a remaining rate was calculated by comparing a reacted sample and an unreacted sample, thereby, a degree at which the compound of the present invention was metabolized in liver was assessed.
A reaction was performed (oxidative reaction) at 37° C. for 0 minute or 30 minutes in the presence of 1 mmol/L NADPH in 0.2 mL of a buffer solution (50 mmol/L Tris-HCl pH 7.4, 150 mmol/L potassium chloride, 10 mmol/L magnesium chloride) containing 0.5 mg protein/mL of human liver microsomes. After the reaction, 50 μL of the reaction solution was added to 100 μL of a solution of methanol/acetonitrile=1/1 (v/v), and the mixture was mixed and centrifuged at 3000 rpm for 15 minutes. The compound of the present invention in the centrifugation supernatant was quantified by LC/MS/MS or solid-phase extraction (SPE)/MS. The amount of the compound of the present invention remaining after the reaction was calculated with the amount of the compound at 0 minutes of the reaction defined as 100%.

CCN1C(=O)c2c(O)c(=O)c(-c3nnc(Cc4cc(F)c(F)cc4F)s3)cn2N2CCCC[C@@H]12 [Compound I-012]
EC50 (HIV): 4.8 nM | ratio of maximum peak current (INa) with compound relative to medium [1]: 97.1% | FC (fold change) for mutant strain 1 [2]: 23 | FC (fold change) for mutant strain 2 [3]: 46 | residual rate [4]: 72.2

CN1C(=O)c2c(O)c(=O)c(-c3nnc(Cc4ccc(F)cc4F)s3)cn2N2CCCC[C@@H]12 [II-003]
EC50 (HIV): 0.62 nM | ratio of maximum peak current (INa) with compound relative to medium [1]: 96.7% | FC (fold change) for mutant strain 1 [2]: 8.8 | FC (fold change) for mutant strain 2 [3]: 12 | residual rate [4]: 109

CN1C(=O)c2c(O)c(=O)c(-c3nnc(Cc4ccc(F)cc4F)s3)cn2N2CCOC[C@@H]12 [II-010]
EC50 (HIV): 1.3 nM | FC (fold change) for mutant strain 1 [2]: 25 | FC (fold change) for mutant strain 2 [3]: 22 | residual rate [4]: 106

CCN1C(=O)c2c(O)c(=O)c(-c3nnc(Cc4c(F)cc(F)cc4F)s3)cn2N2CCOC[C@@H]12 [II-018]
EC50 (HIV): 0.52 nM | ratio of maximum peak current (INa) with compound relative to medium [1]: 109% | FC (fold change) for mutant strain 1 [2]: 15 | FC (fold change) for mutant strain 2 [3]: 20 | residual rate [4]: 95.3

CCN1C(=O)c2c(O)c(=O)c(-c3nnc(Cc4c(F)cc(F)cc4F)s3)cn2N2C[C@@H](C)C[C@@H]12 [II-027]
EC50 (HIV): 1.9 nM | FC (fold change) for mutant strain 1 [2]: 4.7 | FC (fold change) for mutant strain 2 [3]: 7 | residual rate [4]: 90.5

C[C@@H]1CC[C@H]2N(C)C(=O)c3c(O)c(=O)c(-c4nnc(Cc5ccc(F)cc5F)s4)cn3N12 [II-029]
EC50 (HIV): 0.66 nM | FC (fold change) for mutant strain 1 [2]: 7.2 | FC (fold change) for mutant strain 2 [3]: 6.5 | residual rate [4]: 85.3

CCN1C(=O)c2c(O)c(=O)c(-c3nnc(Cc4ccc(F)cc4F)s3)cn2N2CC[C@@H](C)C[C@@H]12 [II-033]
ratio of maximum peak current (INa) with compound relative to medium [1]: 90.7%

CCN1C(=O)c2c(O)c(=O)c(-c3nnc(Cc4ccc(F)cc4)s3)cn2N2[C@H](COC)CC[C@@H]12 [II-038]
EC50 (HIV): 0.13 nM | ratio of maximum peak current (INa) with compound relative to medium [1]: 86.2% | FC (fold change) for mutant strain 1 [2]: 20 | FC (fold change) for mutant strain 2 [3]: 31 | residual rate [4]: 92.4

C[C@@H]1CCC[C@H]2N(C)C(=O)c3c(O)c(=O)c(-c4nnc(Cc5ccc(F)cc5F)s4)cn3N12 [II-043]
EC50 (HIV): 3.5 nM | FC (fold change) for mutant strain 1 [2]: 6.8 | FC (fold change) for mutant strain 2 [3]: 11 | residual rate [4]: 103

CCN1C(=O)c2c(O)c(=O)c(-c3nnc(Cc4c(F)cc(F)cc4F)s3)cn2N2[C@H](C)CCC[C@@H]12 [II-044]
EC50 (HIV): 1.4 nM | FC (fold change) for mutant strain 1 [2]: 11 | FC (fold change) for mutant strain 2 [3]: 26 | residual rate [4]: 88.5

CCN1C(=O)c2c(O)c(=O)c(-c3nnc(Cc4c(F)cc(F)cc4F)s3)cn2N2C[C@@H]3CC[C@@H](O3)[C@@H]12 [II-046]
EC50 (HIV): 0.6 nM | FC (fold change) for mutant strain 1 [2]: 17 | FC (fold change) for mutant strain 2 [3]: 20 | residual rate [4]: 97.2

CCN1C(=O)c2c(O)c(=O)c(-c3nnc(Cc4ccc(F)cc4)s3)cn2N2C[C@@H]3CC[C@@H](O3)[C@@H]12 [II-050]
EC50 (HIV): 0.66 nM | FC (fold change) for mutant strain 1 [2]: 20 | FC (fold change) for mutant strain 2 [3]: 29 | residual rate [4]: 103

CCN1C(=O)c2c(O)c(=O)c(-c3nnc(Cc4c(F)cc(F)cc4F)s3)cn2N2C[C@@H]3CC[C@@H](C3)[C@@H]12 [II-052]
EC50 (HIV): 0.66 nM | FC (fold change) for mutant strain 1 [2]: 2.3 | FC (fold change) for mutant strain 2 [3]: 3.5 | residual rate [4]: 83.4

CC(C)N1C(=O)c2c(O)c(=O)c(-c3nnc(Cc4c(F)cc(F)cc4F)s3)cn2N2C[C@@H]3CC[C@@H](O3)[C@@H]12 [II-054]
EC50 (HIV): 1 nM | FC (fold change) for mutant strain 1 [2]: 3.5 | FC (fold change) for mutant strain 2 [3]: 8.2 | residual rate [4]: 98.8

CN1C(=O)c2c(O)c(=O)c(-c3nnc(Cc4ccc(F)cc4F)s3)cn2N2C[C@@H]3CC[C@@H](C3)[C@@H]12 [II-055]
EC50 (HIV): 0.14 nM | FC (fold change) for mutant strain 1 [2]: 15 | FC (fold change) for mutant strain 2 [3]: 11 | residual rate [4]: 93.9

CCN1C(=O)c2c(O)c(=O)c(-c3nnc(Cc4c(F)cc(F)cc4F)s3)cn2N2CC[C@@H](C)C[C@@H]12 [II-057]
EC50 (HIV): 1.7 nM | FC (fold change) for mutant strain 1 [2]: 3 | FC (fold change) for mutant strain 2 [3]: 3.6 | residual rate [4]: 82.5

C[C@@H]1CCN2[C@@H](C1)N(C)C(=O)c1c(O)c(=O)c(-c3nnc(Cc4c(F)cc(F)cc4F)s3)cn12 [II-058]
EC50 (HIV): 0.69 nM | FC (fold change) for mutant strain 1 [2]: 6.1 | FC (fold change) for mutant strain 2 [3]: 6.1 | residual rate [4]: 94.2

CCN1C(=O)c2c(O)c(=O)c(-c3nnc(Cc4c(F)cc(F)cc4F)s3)cn2N2CC[C@H](C)C[C@@H]12 [II-061]
EC50 (HIV): 1.8 nM | FC (fold change) for mutant strain 1 [2]: 5.1 | FC (fold change) for mutant strain 2 [3]: 7.3 | residual rate [4]: 91.5

CCN1C(=O)c2c(O)c(=O)c(-c3nnc(Cc4cc(F)c(F)cc4F)s3)cn2N2C[C@@H]3CC[C@@H](C3)[C@@H]12 [II-062]
EC50 (HIV): 5.2 nM | FC (fold change) for mutant strain 1 [2]: 8.3 | FC (fold change) for mutant strain 2 [3]: 6.6 | residual rate [4]: 71.7

CN1C(=O)c2c(O)c(=O)c(-c3nnc(Cc4c(F)cc(F)cc4F)s3)cn2N2C[C@@H]3CC[C@@H](C3)[C@@H]12 [II-063]
EC50 (HIV): 0.6 nM | FC (fold change) for mutant strain 1 [2]: 14 | FC (fold change) for mutant strain 2 [3]: 12 | residual rate [4]: 96.5

CCN1C(=O)c2c(O)c(=O)c(-c3nnc(Cc4ccc(F)cc4F)s3)cn2N2C[C@@H](C)CC[C@@H]12 [II-067]
EC50 (HIV): 0.3 nM | FC (fold change) for mutant strain 1 [2]: 5.2 | FC (fold change) for mutant strain 2 [3]: 5.1 | residual rate [4]: 93

CCN1C(=O)c2c(O)c(=O)c(-c3nnc(Cc4c(F)cc(F)cc4F)s3)cn2N2C[C@@H](C)CC[C@@H]12 [II-068]
EC50 (HIV): 1.2 nM | FC (fold change) for mutant strain 1 [2]: 3.5 | FC (fold change) for mutant strain 2 [3]: 4.6 | residual rate [4]: 91.3

CN1C(=O)c2c(O)c(=O)c(-c3nnc(Cc4cccc(Cl)c4F)s3)cn2N2CCOC[C@@H]12 [II-069]
EC50 (HIV): 0.24 nM | FC (fold change) for mutant strain 1 [2]: 30 | FC (fold change) for mutant strain 2 [3]: 25 | residual rate [4]: 102
